From Sander's compilation of Henry's law constants
Values joined by “and” are separate entries in the source; they are usually repeats but may differ in a detail not shown here. Equal values may be shown once. Values belong to the compound of their own block, whether it stands above or below them.

Assay: Henry solubility constant Hcp at 298.15 K (mol/(m3 Pa))
[1] = reference: Murphy et al. (1983a)
[2] = reference: Butler et al. (1935)
[3] = reference: Snider and Dawson (1985)
[4] = reference: Ömür-Özbek and Dietrich (2005)
[5] = reference: Wetlaufer et al. (1964)
[6] = reference: McFall et al. (2020)
[7] = reference: Hawthorne et al. (1985)
[8] = reference: Amoore and Buttery (1978)
[9] = reference: Wieland et al. (2015)
[10] = reference: Souchon et al. (2004)
[11] = reference: Cetin and Odabasi (2005)
[12] = reference: Charles and Destaillats (2005)
[13] = reference: Fenclová et al. (2014)

SMILES: Clc1ccc(Cl)c(-c2cc(Cl)c(Cl)c(Cl)c2Cl)c1 [2,2',3,4,5,5'-hexachlorobiphenyl]
Henry solubility constant Hcp [1]: 0.025

SMILES: CC(C)CO [2-methyl-1-propanol]
Henry solubility constant Hcp [2]: 0.83 | Henry solubility constant Hcp [3]: 1

Henry solubility constant Hcp [4]: 0.089
SMILES: CC1(C)[C@@H]2CC[C@@]1(C)[C@](C)(O)C2 [2-methylisoborneol]

Henry solubility constant Hcp (reference: Wu et al. (2022b)): 0.13
SMILES: CCC(=O)C(C)=O [2,3-pentanedione]

Henry solubility constant Hcp (reference: Shoor et al. (1969)): 5.5e-06 | Henry solubility constant Hcp [5]: 6.3e-06
SMILES: CC(C)(C)C [dimethylpropane]

SMILES: CCC(C)O (stereo not drawn) [2-butanol]
Henry solubility constant Hcp [2]: 0.96 | Henry solubility constant Hcp [3]: 1.1

SMILES: CCC(CC)O[N+](=O)[O-] [3-pentyl nitrate]
Henry solubility constant Hcp (reference: Hauff et al. (1998)): 0.0038

Henry solubility constant Hcp [6]: 1.2e+06
SMILES: COc1cc(CCC(C)=O)cc(OC)c1O [syringylacetone]

SMILES: FCCl [chlorofluoromethane]
Henry solubility constant Hcp (reference: Boggs and Buck (1958)): 0.0015

Henry solubility constant Hcp [4]: 0.081
SMILES: C[C@@H]1CCC[C@]2(C)CCCC[C@@]12O [geosmin]

Henry solubility constant Hcp (reference: Druaux et al. (1998)): 0.25 | Henry solubility constant Hcp (reference: Roberts and Pollien (1997)): 0.13 | Henry solubility constant Hcp (reference: Wu et al. (2022a)): 0.19
SMILES: C=CC(O)CCCCC (stereo not drawn) [1-octen-3-ol]

SMILES: CF [fluoromethane]
Henry solubility constant Hcp (reference: Glew and Moelwyn-Hughes (1953)): 0.00058 | Henry solubility constant Hcp (reference: Swain and Thornton (1962)): 0.00058

Henry solubility constant Hcp [7]: 0.82
SMILES: O=C1CCCCC1 [cyclohexanone]

Henry solubility constant Hcp (reference: Ondo and Dohnal (2007)): 1.4
SMILES: COCCOC [1,2-dimethoxyethane]

SMILES: ClC1=C(Cl)[C@]2(Cl)[C@@H]3[C@@H](Cl)[C@@H](Cl)C[C@@H]3[C@@]1(Cl)C2(Cl)Cl [cis-chlordane]
Henry solubility constant Hcp (reference: Jantunen and Bidleman (2006)): 0.037

Henry solubility constant Hcp [8]: 0.31 | Henry solubility constant Hcp (reference: Christie and Crisp (1967)): 0.4
SMILES: CCCCCN [1-pentanamine]

Henry solubility constant Hcp (reference: Schwarz and Wasik (1977)): 0.028
SMILES: Cc1cccc2ccccc12 [1-methylnaphthalene]

SMILES: Clc1ccc(-c2cc(Cl)ccc2Cl)cc1 [2,4',5-trichlorobiphenyl]
Henry solubility constant Hcp [1]: 0.049

SMILES: C=COC(C)=O [ethenyl ethanoate]
Henry solubility constant Hcp (reference: Böhme et al. (2008)): 0.02

Henry solubility constant Hcp (reference: Crovetto et al. (1982)): 4.2e-05 | Henry solubility constant Hcp (reference: Krause and Benson (1989)): 4.3e-05 | Henry solubility constant Hcp (reference: Morrison and Johnstone (1954)): 4.2e-05 | Henry solubility constant Hcp (reference: von Antropoff (1910)): 4.4e-05
SMILES: [Xe] [xenon]

Henry solubility constant Hcp (reference: Drouillard et al. (1998)): 0.2 and 0.38
SMILES: CC(Cl)CCC(Cl)C(Cl)CCC(Cl)CCl (stereo not drawn) [pentachlorodecane isomers]

Henry solubility constant Hcp (reference: Aprea et al. (2007)): 0.011
SMILES: CCCCCCCC(=O)OCC [ethyl octanoate]

SMILES: Cc1cccc(C=O)c1 [3-methylbenzaldehyde]
Henry solubility constant Hcp (reference: Wu et al. (2022b)): 0.3

SMILES: C=CC=C [1,3-butadiene]
Henry solubility constant Hcp (reference: Ross and Hudson (1957)): 0.00014

SMILES: CC(=O)C(C)(C)C [3,3-dimethyl-2-butanone]
Henry solubility constant Hcp (reference: Hovorka et al. (2019)): 0.043

Henry solubility constant Hcp (reference: Odabasi et al. (2006)): 93
SMILES: c1ccc2c(c1)[nH]c1ccccc12 [carbazole]

SMILES: CN=C=O [methyl isocyanate]
Henry solubility constant Hcp (reference: Roberts and Liu (2019)): 0.013

SMILES: O=C(O)CF [fluoroethanoic acid]
Henry solubility constant Hcp (reference: Bowden et al. (1998a)): 800

Henry solubility constant Hcp [9]: 0.0015
SMILES: Cc1ccco1 [2-methylfuran]

SMILES: CCCC [butane]
Henry solubility constant Hcp (reference: Ben-Naim and Battino (1985)): 1.2e-05 | Henry solubility constant Hcp (reference: Carroll et al. (1997)): 1.3e-05 | Henry solubility constant Hcp (reference: McAuliffe (1963)): 1.1e-05 | Henry solubility constant Hcp (reference: Morrison and Billett (1952)): 1.1e-05 | Henry solubility constant Hcp [5]: 1.3e-05

SMILES: CC(C)CCO[N+](=O)[O-] [3-methyl-1-butanol nitrate]
Henry solubility constant Hcp (reference: Hauff et al. (1998)): 0.005

Henry solubility constant Hcp [8]: 0.004
SMILES: O=C1CCCCCCCCCCCCCCO1 [oxacyclohexadecan-2-one]

Henry solubility constant Hcp (reference: Fichan et al. (1999)): 0.36
SMILES: CC1(C)[C@H]2CC[C@](C)(C2)[C@H]1O [(1R)-1,3,3-trimethylbicyclo[2.2.1]heptan-2-ol]

Henry solubility constant Hcp (reference: Muccitelli and Wen (1978)): 7.9e-06
SMILES: [2H][2H] [deuterium]

Henry solubility constant Hcp (reference: Maaßen (1995)): 0.0005 | Henry solubility constant Hcp (reference: Reichl (1995)): 0.00049 | Henry solubility constant Hcp (reference: Zheng et al. (1997)): 0.00049
SMILES: CC(F)F [1,1-difluoroethane]

Henry solubility constant Hcp (reference: Buttery et al. (1965)): 0.17
SMILES: CCCCCCCCCC=O [decanal]

SMILES: II [iodine (molecular)]
Henry solubility constant Hcp (reference: Eguchi et al. (1973)): 0.028

Henry solubility constant Hcp (reference: Clarke et al. (1962)): 0.00016
SMILES: CC(C)(C)Cl [2-chloro-2-methylpropane]

Henry solubility constant Hcp [6]: 8.6 | Henry solubility constant Hcp (reference: Sagebiel et al. (1992)): 7.7 and 9.1 | Henry solubility constant Hcp [9]: 9
SMILES: COc1ccccc1O [1-hydroxy-2-methoxybenzene]

Henry solubility constant Hcp (reference: Karl et al. (2008)): 0.33
SMILES: COC(=O)c1ccccc1O [2-hydroxybenzoic acid methyl ester]

SMILES: ClC1=C(Cl)C2(Cl)C3C(Cl)C=CC3C1(Cl)C2(Cl)Cl (stereo not drawn) [heptachlor]
Henry solubility constant Hcp (reference: Warner et al. (1980)): 0.0067

Henry solubility constant Hcp (reference: Sanz and Gmehling (2005)): 9.1
SMILES: COC(=O)C(C)O (stereo not drawn) [methyl 2-hydroxypropanoate]

SMILES: N#Cc1c(Cl)c(Cl)c(Cl)c(C#N)c1Cl [2,4,5,6-tetrachloro-1,3-dicyanobenzene]
Henry solubility constant Hcp (reference: Kawamoto and Urano (1989)): 50

Henry solubility constant Hcp [10]: 0.014
SMILES: CCCCCCOC(C)=O [hexyl ethanoate]

Henry solubility constant Hcp (reference: Sarraute et al. (2006)): 0.0071
SMILES: ClCCCCCCCCCl [1,8-dichlorooctane]

SMILES: COP(=S)(OC)Oc1ccc([N+](=O)[O-])c(C)c1 [fenitrothion]
Henry solubility constant Hcp (reference: Metcalfe et al. (1980)): 11

Henry solubility constant Hcp (reference: Nguyen (2013)): 190
SMILES: C1COCCN1 [1-oxa-4-azacyclohexane]

Henry solubility constant Hcp (reference: Buttery et al. (1971)): 0.2
SMILES: COc1nccnc1CC(C)C [2-isobutyl-3-methoxypyrazine]

Henry solubility constant Hcp (reference: Chai et al. (2005)): 0.068 | Henry solubility constant Hcp (reference: Kim et al. (2000)): 0.062
SMILES: CCCCCC(C)=O [2-heptanone]

SMILES: Brc1ccc(Oc2ccc(Br)cc2Br)c(Br)c1 [2,2',4,4'-tetrabromodiphenyl ether]
Henry solubility constant Hcp [11]: 0.87 | Henry solubility constant Hcp [12]: 0.17 | Henry solubility constant Hcp (reference: Long et al. (2017)): 0.91

Henry solubility constant Hcp (reference: Nguyen (2013)): 4500
SMILES: C1CNCCN1 [1,4-diazacyclohexane]

Henry solubility constant Hcp [8]: 0.12 | Henry solubility constant Hcp (reference: Kish et al. (2013)): 0.059
SMILES: CC12CCC(CC1)C(C)(C)O2 [1,3,3-trimethyl-2-oxabicyclo[2.2.2]octane]

Henry solubility constant Hcp (reference: Katrib et al. (2003)): 38
SMILES: COC(=O)CC(=O)OC [propanedioic acid, dimethyl ester]

Henry solubility constant Hcp (reference: Coquelet and Richon (2005)): 0.0015 | Henry solubility constant Hcp (reference: Haimi et al. (2006)): 0.0015
SMILES: CCCCS [1-butanethiol]

Henry solubility constant Hcp (reference: Wittig et al. (2001)): 0.019
SMILES: CCCCOC=O [butyl methanoate]

Henry solubility constant Hcp [7]: 0.66
SMILES: Cc1cccc(C)n1 [2,6-dimethylpyridine]

Henry solubility constant Hcp [6]: 96000
SMILES: COc1cc(CO)ccc1O [vanillyl alcohol]

Henry solubility constant Hcp (reference: Lee et al. (2013)): 0.29
SMILES: N#Cc1ccccc1 [benzenenitrile]

SMILES: CCS [ethanethiol]
Henry solubility constant Hcp (reference: Jou et al. (2021)): 0.0024 | Henry solubility constant Hcp (reference: Vitenberg et al. (1975)): 0.0022

SMILES: [O][Cl+][O-] [chlorine dioxide]
Henry solubility constant Hcp (reference: Bigorgne (1947)): 0.0066 | Henry solubility constant Hcp (reference: Holst (1944)): 0.0097 | Henry solubility constant Hcp (reference: Ishi (1958)): 0.011 | Henry solubility constant Hcp (reference: Kepinski and Trzeszczynski (1964)): 0.01 | Henry solubility constant Hcp (reference: Taube and Dodgen (1949)): 0.01

Henry solubility constant Hcp (reference: Aprea et al. (2007)): 0.024 | Henry solubility constant Hcp [13]: 0.029 | Henry solubility constant Hcp (reference: Landy et al. (1995)): 0.024 | Henry solubility constant Hcp (reference: Landy et al. (1996)): 0.04 | Henry solubility constant Hcp [10]: 0.026
SMILES: CCCC(=O)OCC [ethyl butanoate]

SMILES: CC(C)(C)CC(C)(C)c1ccc(O)cc1 [4-(1,1,3,3-tetramethylbutyl)-phenol]
Henry solubility constant Hcp (reference: Xie et al. (2004)): 2.3

SMILES: Clc1ccc(Cl)c(-c2ccccc2Cl)c1 [2,2',5-trichlorobiphenyl]
Henry solubility constant Hcp [1]: 0.049

SMILES: Clc1ccc(-c2cc(Cl)c(Cl)c(Cl)c2Cl)cc1Cl [2,3,3',4,4',5-hexachlorobiphenyl]
Henry solubility constant Hcp [1]: 0.011

SMILES: CCCCOC(C)=O [butyl ethanoate]
Henry solubility constant Hcp [13]: 0.035 | Henry solubility constant Hcp (reference: Ioffe et al. (1984)): 0.035 | Henry solubility constant Hcp (reference: Kieckbusch and King (1979b)): 0.035

Henry solubility constant Hcp (reference: Wu et al. (2022b)): 0.12
SMILES: CC(=O)CCC=C(C)C [6-methyl-5-hepten-2-one]

SMILES: C#CCBr [3-bromo-1-propyne]
Henry solubility constant Hcp (reference: Yates and Gan (1998)): 0.0088

SMILES: CC(=O)C(=O)O [2-oxopropanoic acid]
Henry solubility constant Hcp (reference: Khan and Brimblecombe (1992)): 3100 | Henry solubility constant Hcp (reference: Khan et al. (1992)): 3100 | Henry solubility constant Hcp (reference: Khan et al. (1995)): 3100

SMILES: Brc1ccc(Oc2c(Br)cc(Br)cc2Br)c(Br)c1 [2,2',4,4',6-pentabromodiphenyl ether]
Henry solubility constant Hcp [11]: 3.8 | Henry solubility constant Hcp [12]: 0.19 | Henry solubility constant Hcp (reference: Long et al. (2017)): 3.6

Henry solubility constant Hcp (reference: Haimi et al. (2006)): 0.0019
SMILES: CCCCCC(C)(C)OC [2-methoxy-2-methylheptane]
